In general, IC50 refers to the midpoint of a concentration-inhibition curve.

The target in experiment [1] is T1, human CB1 receptor (Homo sapiens, UniProt P21554).
T1 construct: expressed in transfected cells; host or cells: HEK293
Briefly: bioSensAll GAPL-Gi2 BRET biosensor assay in HEK293 cells transfected with hCB1; test compound added before EC75-80 of agonist CP55,940 (0.1 nM). In kind it is cell-based. The note with it: vs CP55,940 0.1 nM (EC75-80), read-out: CB1 wt Gi2 IC50. Here is the method: (§1) Using polyethylenimine (PEI) transfection agent, HEK293 cells were transfected in suspension with the human CB1 receptor and one of the following bioSensAll® assays: GAPL-Gi2, or β-arrestin plasma membrane (PM) translocation biosensor (+GRK2). Cells were directly seeded in 96-well plates immediately following transfection.
(§2) Cells were incubated with coelenterazine (luciferase substrate) and different test compounds prior to the measurement of BRET signals.
(§3) Used in this project are i) Gα plasma membrane (GAPL) biosensors and the ii) β-arrestin plasma membrane translocation biosensor.
i) GAPL sensors are used to monitor the activation of heterotrimeric G proteins at the plasma membrane upon receptor stimulation. Specifically, these multimolecular BRET sensors detect the plasma membrane recruitment of proteins that interact with active Gα subunits in a G protein family-selective manner. G protein activation following receptor stimulation generally leads to an increase in the BRET signal.
(§4) HEK293 cells were maintained in Dulbecco's Modified Eagle Medium (DMEM) (Wisent; cat #319-030-CL: without sodium pyruvate, with 4.5 g/L glucose, without L-glutamine) supplemented with 1% penicillin-streptomycin (Wisent; cat #450-201-EL) and 2 or 10% fetal bovine serum (Wisent cat #090150).
(§5) HEK293 cells were co-transfected with hCB1 and one of the above-listed bioSensAll® assays. For each transfection condition: • the total amount of transfected DNA was kept constant at 1 μg per mL of cell culture to be transfected; whenever necessary, salmon sperm DNA (Invitrogen, cat #15632011) was used as ‘carrier’ DNA to supplement plasmid DNA (i.e., biosensor and receptor); • the PEI (polyethylenimine 25 kDa linear, PolyScience, cat #23966) to DNA ratio (ug:ug) was fixed at 3:1.
(§6) Transfections were carried out as follows: • DNA and PEI were first diluted separately in 150 mM NaCl. The volume of the diluent in each tube corresponds to 5% of the cell culture volume to be transfected. • Once DNA and PEI were diluted, the PEI-containing solution was added to the DNA solution and the DNA/PEI mixture immediately vortexed for 5 seconds. • The DNA/PEI mixture was incubated for at least 20 minutes at room temperature to allow for the formation of DNA/PEI complexes. • During the incubation, HEK293 cells were detached, counted and re-suspended in culture medium (composition specified above). • At the end of the incubation period, the DNA/PEI mixture was added to the cells. • Cells were finally distributed in 96-well plates (White Opaque 96-well/Microplates, Greiner, cat #655083 or CulturPlate-96, White Opaque 96-well Microplate, PerkinElmer, cat #6005688) at a density of 30,000 cells per well.
(§7) At 48 hours post-transfection: • Using 450-Select TS Biotek plate washer, culture medium was aspirated and replaced with 100 μL of Hank's Balanced Salt Solution buffer (HBSS) (Wisent, cat #319-067CL: without red phenol; with sodium bicarbonate, with calcium and magnesium, with HEPES) per well. • Plates were then incubated (equilibrated) at 37° C., 5% CO2 for 60 minutes. • Increasing doses of test compounds were then added to each well using the HP D300e digital dispenser (Tecan). All compounds were assayed at the following 12 concentrations (in nM) with each biosensor: 0.000, 0.013, 0.040, 0.120, 0.320, 0.960, 2.80, 8.00, 24.0, 70.0, 205 and 600. • Three to 5 minutes later, an assay-specific effective concentration (EC)75-80 of agonist CP55,940 (i.e., 0.1 nM and 100 nM for G[…]i2-GAPL or […]Arrestin2 (+GRK2) assay, respectively) was added to wells previously injected with test compound (i.e., previous step 3). […]

Experiment [2] addresses T1, human CB1 receptor. Briefly: bioSensAll β-arrestin2 plasma membrane translocation (+GRK2) BRET biosensor assay in HEK293 cells transfected with hCB1; test compound added before EC75-80 of agonist CP55,940 (100 nM). It counts as cell-based. As to conditions: βArrestin2 (+GRK2) BRET biosensor, vs CP55,940 100 nM (EC75-80), read-out: CB1 wt βarr2 IC50. Here is the method: as §1, §2, §3
ii) The multimolecular β-arrestin membrane recruitment biosensors allow for real-time spatio-temporal monitoring of β-arrestin 1 and β-arrestin 2 following GPCR activation. Specifically, these β-arrestin sensors were designed to detect the recruitment of proteins to the plasma membrane (β-arrestin PM) with localization to compartment resulting in an increased BRET signal.
as §4, §5, §6, §7
Background: Bioluminescence resonance energy transfer reports proximity on the nanometre scale.

Molecules are shown by their SMILES. Some results are limits rather than exact numbers.

T1 sequence (P21554 whole entry): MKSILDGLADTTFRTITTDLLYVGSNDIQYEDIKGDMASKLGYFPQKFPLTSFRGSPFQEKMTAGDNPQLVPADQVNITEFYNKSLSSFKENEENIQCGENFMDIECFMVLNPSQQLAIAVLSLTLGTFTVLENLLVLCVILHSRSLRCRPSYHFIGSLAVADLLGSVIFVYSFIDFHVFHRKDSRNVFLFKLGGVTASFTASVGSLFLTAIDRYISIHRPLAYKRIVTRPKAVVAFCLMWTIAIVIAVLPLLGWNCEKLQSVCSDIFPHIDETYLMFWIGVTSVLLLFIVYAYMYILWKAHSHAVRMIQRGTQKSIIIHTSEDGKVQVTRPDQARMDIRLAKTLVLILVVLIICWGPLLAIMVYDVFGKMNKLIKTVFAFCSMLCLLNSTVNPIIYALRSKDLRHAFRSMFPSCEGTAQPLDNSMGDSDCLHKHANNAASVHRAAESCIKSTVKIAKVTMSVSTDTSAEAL

Take `CC(CO)Oc1nc(N2CCC(C)(C(N)=O)CC2)c2nc(-c3ccccc3Cl)n(-c3ccc(Cl)cc3)c2n1` (single isomer, unassigned) [Compound 7, 1-[8-(2-chlorophenyl)-9-(4-chlorophenyl)-2-(2-hydroxy-1-methyl-ethoxy)purin-6-yl]-4-methyl-piperidine-4-carboxamide]: the IC50 on human CB1 receptor [1] turned out to be 0.417 nM; on human CB1 receptor [2], 3.45 nM.
`CC(O)COc1nc(N2CCC(C)(C(N)=O)CC2)c2nc(-c3ccccc3Cl)n(-c3ccc(Cl)cc3)c2n1` (single isomer, unassigned) [Compound 8, 1-[8-(2-chlorophenyl)-9-(4-chlorophenyl)-2-(2-hydroxypropoxy)purin-6-yl]-4-methyl-piperidine-4-carboxamide]: the IC50 on human CB1 receptor [1] was found to be 0.922 nM; at human CB1 receptor [2], 2.74 nM.
Regarding `CC(CO)Oc1nc(N2CCC(C(F)(F)F)CC2)c2nc(-c3ccccc3Cl)n(-c3ccc(Cl)cc3)c2n1` (single isomer, unassigned) [Compound 24, 2-[8-(2-chlorophenyl)-9-(4-chlorophenyl)-6-[4-(trifluoromethyl)-1-piperidyl]purin-2-yl]oxypropan-1-01], the IC50 at human CB1 receptor [1] is 0.707 nM; on human CB1 receptor [2] it was 1.91 nM.
The corresponding values for `CC(O)COc1nc(N2CCC(C(F)(F)F)CC2)c2nc(-c3ccccc3Cl)n(-c3ccc(Cl)cc3)c2n1` (single isomer, unassigned) [Compound 25, 1-[8-(2-chlorophenyl)-9-(4-chlorophenyl)-6-[4-(trifluoromethyl)-1-piperidyl]purin-2-yl]oxypropan-2-ol] are 0.706 nM and 2.06 nM.
For the compound `CCOC1(C(N)=O)CCCN(c2nc(OCC(C)(C)O)nc3c2nc(-c2ccccc2Cl)n3-c2ccc(Cl)cc2)C1` (single isomer, unassigned) [Compound 216], the IC50 on human CB1 receptor [1] was found to be 1.77 nM; on human CB1 receptor [2] it was 8.61 nM.
On the same counts, the results for `CCOC1(C(N)=O)CCCN(c2nc(OCC(C)(C)O)nc3c2nc(-c2ccccc2Cl)n3-c2ccc(Cl)cc2)C1` (single isomer, unassigned) [Compound 217] are 27 nM and 73.7 nM.
On the same counts, the results for `CC(C)C(=O)Nc1nc(N2CCC(C)(C(N)=O)CC2)c2nc(-c3ccccc3Cl)n(-c3ccc(Cl)cc3)c2n1` [Compound 1, 1-[8-(2-chlorophenyl)-9-(4-chlorophenyl)-2-(2-methylpropanoylamino)purin-6-yl]-4-methyl-piperidine-4-carboxamide] are 4.3 nM and 15.2 nM.
On the same counts, the results for `CN(C)C(=O)c1nc(N2CCC(C)(C(N)=O)CC2)c2nc(-c3ccccc3Cl)n(-c3ccc(Cl)cc3)c2n1` [Compound 2, 6-(4-carbamoyl-4-methyl-1-piperidyl)-8-(2-chlorophenyl)-9-(4-chlorophenyl)-N,N-dimethyl-purine-2-carboxamide] are 10.5 nM and 63.5 nM.
Take `Cc1cnn(-c2nc(N3CCC(C)(C(N)=O)CC3)c3nc(-c4ccccc4Cl)n(-c4ccc(Cl)cc4)c3n2)c1` [Compound 3, 1-[8-(2-chlorophenyl)-9-(4-chlorophenyl)-2-(4-methylpyrazol-1-yl)purin-6-yl]-4-methyl-piperidine-4-carboxamide]: the IC50 turned out to be 1.38 nM at human CB1 receptor [1] and 12.2 nM on human CB1 receptor [2].
As for `Cc1ccn(-c2nc(N3CCC(C)(C(N)=O)CC3)c3nc(-c4ccccc4Cl)n(-c4ccc(Cl)cc4)c3n2)n1` [Compound 4, 1-[8-(2-chlorophenyl)-9-(4-chlorophenyl)-2-(3-methylpyrazol-1-yl)purin-6-yl]-4-methyl-piperidine-4-carboxamide], the IC50 stood at 2.03 nM at human CB1 receptor [1] and 10.4 nM on human CB1 receptor [2].
`CC1(C(N)=O)CCN(c2nc(N3CCNC[C@H]3CO)nc3c2nc(-c2ccccc2Cl)n3-c2ccc(Cl)cc2)CC1` [Compound 5, 1-[8-(2-chlorophenyl)-9-(4-chlorophenyl)-2-[(2S)-2-(hydroxymethyl)piperazin-1-yl]purin-6-yl]-4-methyl-piperidine-4-carboxamide]: the values for the IC50 on human CB1 receptor [1] and on human CB1 receptor [2] were 0.961 nM and 16 nM, respectively.
Turning to `CC1(C(N)=O)CCN(c2nc(OCCCO)nc3c2nc(-c2ccccc2Cl)n3-c2ccc(Cl)cc2)CC1` [Compound 6, 1-[8-(2-chlorophenyl)-9-(4-chlorophenyl)-2-(3-hydroxypropoxy)purin-6-yl]-4-methyl-piperidine-4-carboxamide], the values for the IC50 at human CB1 receptor [1] and on human CB1 receptor [2] were 0.861 nM and 4.78 nM, respectively.
On to `CN(CP(C)(C)=O)c1nc(N2CCC(C)(C(N)=O)CC2)c2nc(-c3ccccc3Cl)n(-c3ccc(Cl)cc3)c2n1` [Compound 71, 1-[8-(2-chlorophenyl)-9-(4-chlorophenyl)-2-[dimethylphosphorylmethyl(methyl)amino]purin-6-yl]-4-methyl-piperidine-4-carboxamide], for which the IC50 at human CB1 receptor [1] worked out at 9.05 nM.
Take `CC(C)(O)COc1nc(NCCO)c2nc(-c3ccccc3Cl)n(-c3ccc(Cl)cc3)c2n1` [Compound 98]: the IC50 on human CB1 receptor [2] is > 5000 nM.
On to `Cc1nc(C#N)ccc1-c1nc2c(N3CCC(C)(C(N)=O)CC3)nc(OCC(C)(C)O)nc2n1-c1ccc(Cl)cc1` [Compound 107, 1-[9-(4-chlorophenyl)-8-(6-cyano-2-methyl-3-pyridyl)-2-(2-hydroxy-2-methyl-propoxy)purin-6-yl]-4-methyl-piperidine-4-carboxamide], for which the IC50 on human CB1 receptor [1] stood at 27.7 nM.
On to `CC(C)(O)COc1nc(N2CCC(C)(C(=O)O)CC2)c2nc(-c3ccc(C#N)nc3)n(-c3ccc(Cl)cc3)c2n1` [Compound 118, 1-[9-(4-chlorophenyl)-8-(6-cyano-3-pyridyl)-2-(2-hydroxy-2-methyl-propoxy)purin-6-yl]-4-methyl-piperidine-4-carboxylic acid], for which the IC50 at human CB1 receptor [2] is > 5000 nM.
As for `Cc1cnccc1-c1nc2c(N3CCC(C)(C(N)=O)CC3)nc(OCC(C)(C)O)nc2n1-c1ccc(Cl)cc1` [Compound 122, 1-[9-(4-chlorophenyl)-2-(2-hydroxy-2-methyl-propoxy)-8-(3-methyl-4-pyridyl)purin-6-yl]-4-methyl-piperidine-4-carboxamide], the IC50 on human CB1 receptor [1] is 14.6 nM.
Still for that read-out and setting: the value for `CN(CC(C)(C)O)c1nc(N2CC(C(N)=O)C2)c2nc(-c3ccc(C#N)nc3)n(-c3ccc(Cl)cc3)c2n1` [Compound 129] was 438 nM; that for `NC(=O)N1CC(Nc2nc(N3CCC[C@H]3CO)nc3c2nc(-c2ccccc2Cl)n3-c2ccc(Cl)cc2)C1` [Compound 175] was 5.3 nM; that for `CCOC1(C(=O)O)CCN(c2nc(OCC(C)(C)O)nc3c2nc(-c2ccccc2Cl)n3-c2ccc(Cl)cc2)CC1` [Compound 218] was 7.82 nM.
Same read-out and setting: the value for `CC(C)(O)COc1nc(N2CCNCC2)c2nc(-c3ccccc3Cl)n(-c3ccc(Cl)cc3)c2n1` [Compound 219] was 59.7 nM; that for `CC(C)(O)COc1nc(N2CC(C(N)=O)C2)c2nc(-c3ccccc3Cl)n(-c3ccc(Cl)cc3)c2n1` [Compound 238] was 13.8 nM; that for `CC(=O)NC1(C)CN(c2nc(OCC(C)(C)OP(=O)(O)O)nc3c2nc(-c2ccccc2Cl)n3-c2ccc(Cl)cc2)C1` [Compound 239, 1-((6-(3-acetamido-3-methylazetidin-1-yl)-8-(2-chlorophenyl)-9-(4-chlorophenyl)-9H-purin-2-yl)oxy)-2-methylpropan-2-yl dihydrogen phosphate] was 27.4 nM.

The values are drawn from patent US20250333418A1, “PURINE COMPOUNDS, COMPOSITIONS COMPRISING THEM AND USES THEREOF” (Novo Nordisk A/S, priority 2022, published 2025).
